According to ChEMBL document CHEMBL5528026, “Structural modification of C2-substituents on 1,4-bis(arylsulfonamido)benzene or naphthalene-N,N'-diacetic acid derivatives as potent inhibitors of the Keap1-Nrf2 protein-protein interaction” (Eur J Med Chem, 2024):

Columns and labels:
[1] = biological target: T1, Keap1/Nrf2 (Homo sapiens, UniProt Q14145); experiment: (§1) Inhibition of Keap1-Nrf2 protein-protein interaction (unknown origin) assessed as inhibition constant by TR-FRET assay
[2] = biological target: T1, Keap1/Nrf2; experiment: Inhibition of Keap1-Nrf2 protein-protein interaction (unknown origin) by fluorescence polarization assay
[3] = biological target: T1, Keap1/Nrf2; experiment: Inhibition of Keap1-Nrf2 protein-protein interaction (unknown origin) assessed as inhibition constant by fluorescence polarization assay
[4] = biological target: T2, Keap1/Nrf2 (Homo sapiens, UniProt Q16236+Q14145); experiment: Inhibition of Keap1-Nrf2 protein-protein interaction in human NCM460D cells assessed as fold induction at 1 to 100 uM in NQO1 mRNA level incubated for 24 hrs by RT-qPCR analysis; format: cell-based; conditions: dose 1-100 µM
Target sequence in this assay (Q14145 whole entry, looked up): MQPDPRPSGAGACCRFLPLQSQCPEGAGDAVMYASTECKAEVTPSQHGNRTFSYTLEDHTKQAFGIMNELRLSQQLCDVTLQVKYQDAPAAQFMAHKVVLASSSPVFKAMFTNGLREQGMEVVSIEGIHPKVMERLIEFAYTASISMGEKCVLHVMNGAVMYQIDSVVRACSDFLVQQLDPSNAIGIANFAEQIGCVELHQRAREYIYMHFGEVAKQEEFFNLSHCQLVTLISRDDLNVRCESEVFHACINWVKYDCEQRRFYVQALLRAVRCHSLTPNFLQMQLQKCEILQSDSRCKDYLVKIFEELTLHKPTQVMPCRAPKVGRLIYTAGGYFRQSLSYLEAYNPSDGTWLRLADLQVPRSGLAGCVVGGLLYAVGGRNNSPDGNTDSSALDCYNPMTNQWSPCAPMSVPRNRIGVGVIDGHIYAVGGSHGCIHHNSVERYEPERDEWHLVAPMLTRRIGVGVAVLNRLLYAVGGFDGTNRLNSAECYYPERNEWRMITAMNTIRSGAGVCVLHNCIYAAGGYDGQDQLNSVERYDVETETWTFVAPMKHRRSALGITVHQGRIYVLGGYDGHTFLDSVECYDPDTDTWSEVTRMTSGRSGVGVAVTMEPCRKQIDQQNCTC
Target sequence in this assay (Q16236 whole entry, looked up): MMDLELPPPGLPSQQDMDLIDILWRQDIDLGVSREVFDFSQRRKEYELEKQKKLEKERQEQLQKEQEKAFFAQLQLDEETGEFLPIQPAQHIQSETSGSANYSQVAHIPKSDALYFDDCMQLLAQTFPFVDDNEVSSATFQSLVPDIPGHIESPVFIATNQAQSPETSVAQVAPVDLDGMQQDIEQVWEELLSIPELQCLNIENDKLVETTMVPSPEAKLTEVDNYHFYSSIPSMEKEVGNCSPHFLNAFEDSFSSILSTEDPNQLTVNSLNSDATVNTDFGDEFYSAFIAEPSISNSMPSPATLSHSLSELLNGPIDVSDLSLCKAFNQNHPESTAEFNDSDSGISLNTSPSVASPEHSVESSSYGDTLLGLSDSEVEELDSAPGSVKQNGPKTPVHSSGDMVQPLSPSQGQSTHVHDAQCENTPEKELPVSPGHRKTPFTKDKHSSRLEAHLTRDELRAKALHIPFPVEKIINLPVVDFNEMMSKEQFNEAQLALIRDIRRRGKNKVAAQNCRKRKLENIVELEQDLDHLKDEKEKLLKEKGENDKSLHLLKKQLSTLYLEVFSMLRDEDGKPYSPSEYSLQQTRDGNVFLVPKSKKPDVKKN

[5] = biological target: T1, Keap1/Nrf2; experiment: Inhibition of Keap1-Nrf2 protein-protein interaction (unknown origin) by TR-FRET assay
[6] = biological target: T2, Keap1/Nrf2; experiment: as §1
Target sequence in this assay (Q16236 whole entry): as the sequence (Q16236 whole entry, looked up) above
Target sequence in this assay (Q14145 whole entry): as the sequence (Q14145 whole entry, looked up) above

T1 sequence (Q16236 whole entry): as the sequence (Q16236 whole entry, looked up) above
T1 sequence (Q14145 whole entry): as the sequence (Q14145 whole entry, looked up) above

| Structure (SMILES) | Ki [1] [nM] | IC50 [2] [nM] | Ki [3] [nM] | also measured |
| --- | --- | --- | --- | --- |
| COc1ccc(S(=O)(=O)N(CC(=O)O)c2ccc(N(CC(=O)O)S(=O)(=O)c3ccc(OC)cc3)c(OCC(=O)N3CCC(c4ccccc4)CC3)c2)cc1 | 141 | 760 | – | – |
| COc1ccc(S(=O)(=O)N(CC(=O)O)c2ccc(N(CC(=O)O)S(=O)(=O)c3ccc(OC)cc3)c(OCC(=O)N3CCOCC3)c2)cc1 | 66.1 | 399 | – | – |
| COc1ccc(S(=O)(=O)N(CC(=O)O)c2ccc(N(CC(=O)O)S(=O)(=O)c3ccc(OC)cc3)c(OS(=O)(=O)c3ccccc3)c2)cc1 | 74.2 | 439 | – | – |
| COc1ccc(S(=O)(=O)N(CC(=O)O)c2ccc(N(CC(=O)O)S(=O)(=O)c3ccc(OC)cc3)c(C(=O)OCc3ccccc3)c2)cc1 | 316 | 1610 | – | – |
| Cc1ccc(S(=O)(=O)N(CC(=O)O)c2ccc(N(CC(=O)O)S(=O)(=O)c3ccc(C)cc3)c(OCCN3C(=O)c4ccccc4C3=O)c2)cc1 | – | 228 | 30.6 | – |
| COc1ccc(S(=O)(=O)N(CC(=O)O)c2ccc(N(CC(=O)O)S(=O)(=O)c3ccc(OC)cc3)c(OCC(=O)N3CCN(C)CC3)c2)cc1 | 452 | 2260 | – | – |
| COc1ccc(S(=O)(=O)N(CC(=O)O)c2ccc(N(CC(=O)O)S(=O)(=O)c3ccc(OC)cc3)c(OCC(=O)Nc3ccccc3)c2)cc1 | 1570 | 7680 | – | – |
| Cc1ccc(S(=O)(=O)N(CC(=O)O)c2ccc(N(CC(=O)O)S(=O)(=O)c3ccc(C)cc3)c(OCc3nnn[nH]3)c2)cc1 | – | 408 | 68 | – |
| Cc1ccc(S(=O)(=O)N(CC(=O)O)c2ccc(N(CC(=O)O)S(=O)(=O)c3ccc(C)cc3)c(CCC(=O)O)c2)cc1 | – | 565 | 100 | – |
| Cc1ccc(S(=O)(=O)N(CC(=O)O)c2ccc(N(CC(=O)O)S(=O)(=O)c3ccc(C)cc3)c(OCC(=O)N3CCOCC3)c2)cc1 | – | 641 | 116 | – |
| COc1ccc(S(=O)(=O)N(CC(=O)O)c2ccc(N(CC(=O)O)S(=O)(=O)c3ccc(OC)cc3)c(OC(=O)c3ccccc3)c2)cc1 | 351 | 1780 | – | – |
| Cc1ccc(S(=O)(=O)N(CC(=O)O)c2cc(CCC(=O)O)c(N(CC(=O)O)S(=O)(=O)c3ccc(C)cc3)c3ccccc23)cc1 | 9.1 | 69.3 | ~1 | FC [4]: 8; IC50 [5]: 22.3 nM |
| Cc1ccc(S(=O)(=O)N(CC(=O)O)c2cc(OCC(=O)O)c(N(CC(=O)O)S(=O)(=O)c3ccc(C)cc3)c3ccccc23)cc1 | – | – | – | FC [4]: 15 |
| Cc1ccc(S(=O)(=O)N(CC(=O)O)c2ccc(N(CC(=O)O)S(=O)(=O)c3ccc(C)cc3)c(NCC(=O)O)c2)cc1 | – | 1780 | 351 | – |
| COc1ccc(S(=O)(=O)N(CC(=O)O)c2ccc(N(CC(=O)O)S(=O)(=O)c3ccc(OC)cc3)c(C(=O)Oc3ccccc3)c2)cc1 | 780 | 3850 | – | – |
| COc1ccc(S(=O)(=O)N(CC(=O)O)c2ccc(N(CC(=O)O)S(=O)(=O)c3ccc(OC)cc3)c(OS(=O)(=O)Cc3ccccc3)c2)cc1 | 82 | – | – | – |
| COc1ccc(S(=O)(=O)N(CC(=O)O)c2ccc(N(CC(=O)O)S(=O)(=O)c3ccc(OC)cc3)c(OS(=O)(=O)c3ccc(-c4ccccc4)cc3)c2)cc1 | 78.3 | – | – | – |
| COc1ccc(S(=O)(=O)N(CC(=O)O)c2ccc(N(CC(=O)O)S(=O)(=O)c3ccc(OC)cc3)c(OS(=O)(=O)c3c(C)cc(C)cc3C)c2)cc1 | 50.7 | – | – | – |
| COc1ccc(S(=O)(=O)N(CC(=O)O)c2ccc(N(CC(=O)O)S(=O)(=O)c3ccc(OC)cc3)c(OCC(=O)c3ccccc3)c2)cc1 | 106 | 593 | – | – |
| Cc1ccc(S(=O)(=O)N(CC(=O)O)c2ccc(N(CC(=O)O)S(=O)(=O)c3ccc(C)cc3)c(OCc3ccc(F)cc3)c2)cc1 | – | – | 76.3 | – |
| Cc1ccc(S(=O)(=O)N(CC(=O)O)c2ccc(N(CC(=O)O)S(=O)(=O)c3ccc(C)cc3)c(O[C@@H](C)C(=O)O)c2)cc1 | 32.2 | 136 | 11.6 | IC50 [5]: 72.2 nM |
| COc1ccc(S(=O)(=O)N(CC(=O)O)c2ccc(N(CC(=O)O)S(=O)(=O)c3ccc(OC)cc3)c(OCCN3CCOCC3)c2)cc1 | 500 | 2500 | – | – |
| Cc1ccc(S(=O)(=O)N(CC(=O)O)c2ccc(N(CC(=O)O)S(=O)(=O)c3ccc(C)cc3)c(OS(=O)(=O)c3c(C)cc(C)cc3C)c2)cc1 | – | 407 | 67.6 | – |
| Cc1ccc(S(=O)(=O)N(CC(=O)O)c2ccc(N(CC(=O)O)S(=O)(=O)c3ccc(C)cc3)c(O[C@H](C)C(=O)O)c2)cc1 | – | – | – | Ki [6]: 41.4 nM |
